Assay results reported in PubChem BioAssay (NCI).
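The compound was tested at five concentrations on cells cultured in 96-well plates, with a 48-hour exposure period. At the TGI there is no net growth.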

Columns and labels:
Assay in all cases: NCI tumour cell line growth inhibition, 48 h
[1] = test system: 786-0 renal
[2] = test system: A498 renal
[3] = test system: A549 NSCLC
[4] = test system: ACHN renal
[5] = test system: CAKI-1 renal
[6] = test system: CCRF-CEM leukemia
[7] = test system: COLO 205 colon
[8] = test system: DMS 114 small cell lung
[9] = test system: DMS 273 small cell lung
[10] = test system: EKVX NSCLC
[11] = test system: HCC-2998 colon
[12] = test system: HCT-116 colon
[13] = test system: HCT-15 colon
[14] = test system: HL-60(TB) leukemia
[15] = test system: HOP-18 NSCLC
[16] = test system: HOP-62 NSCLC
[17] = test system: IGROV1 ovarian
[18] = test system: K-562 leukemia
[19] = test system: KM12 colon
[20] = test system: KM20L2 colon
[21] = test system: LXFL 529 NSCLC
[22] = test system: M14 melanoma
[23] = test system: M19-MEL melanoma
[24] = test system: MALME-3M melanoma
[25] = test system: MOLT-4 leukemia
[26] = test system: NCI-H226 lung
[27] = test system: NCI-H460 lung
[28] = test system: NCI-H522 lung
[29] = test system: OVCAR-3 ovarian
[30] = test system: OVCAR-4 ovarian
[31] = test system: OVCAR-8 ovarian
[32] = test system: RPMI-8226 leukemia
[33] = test system: RXF 393 renal
[34] = test system: RXF-631 renal
[35] = test system: SF-268 CNS
[36] = test system: SF-539 CNS
[37] = test system: SK-MEL-2 melanoma
[38] = test system: SK-MEL-28 melanoma
[39] = test system: SK-MEL-5 melanoma
[40] = test system: SK-OV-3 ovarian
[41] = test system: SN12C renal
[42] = test system: SNB-19 CNS
[43] = test system: SNB-75 CNS
[44] = test system: SNB-78 CNS
[45] = test system: SR leukemia
[46] = test system: SW-620 colon
[47] = test system: TK-10 renal
[48] = test system: U251 CNS
[49] = test system: UACC-257 melanoma
[50] = test system: UACC-62 melanoma
[51] = test system: UO-31 renal
[52] = test system: DLD-1 colon
[53] = test system: HOP-92 NSCLC
[54] = test system: HT29 colon
[55] = test system: LOX IMVI melanoma
[56] = test system: NCI-H23 lung
[57] = test system: OVCAR-5 ovarian
[58] = test system: SF-295 CNS

Measured: TGI

CC(C)[C@@H](C)CC[C@@H](C)C1CC=C2[C@@H]3CCC4C[C@@H](O[Si](C)(C)C(C)(C)C)CC[C@]4(C)C3CC[C@@]21C (stereo partly drawn)
not listed: [52] | [53] | [54] | [55] | [56] | [57] | [58]
> 100 µM: all other assays above

Nc1ncnc2c1ncn2C1OC(CSC(F)F)C(O)C1O (stereo not drawn)
not listed: [23] | [33] | [42] | [45]
> 100 µM: all other assays above

O=C(Nc1nc(=S)[nH][nH]1)C(=O)C1C(=O)Nc2ccccc2S1=O (stereo not drawn)
not listed: [2] | [18] | [26] | [32] | [33] | [37] | [44] | [48] | [52] | [57]
> 100 µM: all other assays above
